# EP4389746A2, “P2X3 RECEPTOR ANTAGONISTS” (Recordati Industria Chimica E Farmaceutica SPA, priority 2022, dated 2024)
# How the values were obtained:
# [1] = biological target: T1, human P2X3 receptor (Homo sapiens, UniProt P56373); experiment: Calcium luminescence measurement: human P2X3 receptor activity inhibition (CHO-K1 cells, photoprotein readout, FLEXSTATION); type: cell-based; conditions: CHO-K1 cells co-expressing human P2X3 and Ca2+ sensitive photoprotein; agonist α,β-Met-ATP; read-out: h-P2X3 IC50
# T1 construct: expressed in transfected cells; host or cells: CHO-K1
# T1 sequence (P56373 1-397): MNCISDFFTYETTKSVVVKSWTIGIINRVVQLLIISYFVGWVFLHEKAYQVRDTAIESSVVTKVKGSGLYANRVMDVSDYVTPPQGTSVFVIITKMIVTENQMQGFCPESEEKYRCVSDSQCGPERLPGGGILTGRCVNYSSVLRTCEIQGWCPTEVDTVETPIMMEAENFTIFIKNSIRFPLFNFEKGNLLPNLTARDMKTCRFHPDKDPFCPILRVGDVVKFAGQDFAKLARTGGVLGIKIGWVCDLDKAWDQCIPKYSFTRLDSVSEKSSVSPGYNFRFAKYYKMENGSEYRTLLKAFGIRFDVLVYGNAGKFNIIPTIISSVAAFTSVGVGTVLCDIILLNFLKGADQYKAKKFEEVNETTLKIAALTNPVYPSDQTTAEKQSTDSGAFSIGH
# Procedure: Determination of human P2X3 receptor activity inhibition
# The assay for the human purinergic P2RX3 receptor has been adapted to the internal screening instrumentation using the FLEXSTATION as reader and a photoprotein as luminescent readout. The assay consists of CHO-K1 cells recombinantly co-expressing the human P2rx3 receptor and a Ca^2+ sensitive photoprotein. Cells are maintained in DMEM F-12 (1:1) mixture (LONZA cat. n° BE04-687F/U1) supplemented with 9 mL of 100 mM Sodium Pyruvate (LONZA cat. n° BE13-115E), 29 mL of 7.5% Sodium Bicarbonate (LONZA cat. n° BE17-613E), 5.5 mL of 1 M Hepes (LONZA cat. n° BE17-737E), 5 mL of 100X Penicillin/Streptomycin mixture (LONZA cat. n° DE17-602E) and 50 mL of Fetal Bovine Serum (Sigma cat. n° F7524), 1 mg/mL G418 disulfate salt (Sigma cat. n° G8168) and 5 µg/ml Puromycin dihydrochloride (Sigma cat. n° P9620). Standard propagation conditions consist of seeding in a P75 flask twice a week, recovering about 20×10^6 cells, corresponding to about 80% confluency. Cells were seeded into black-walled clear bottom 96 well plates at a density of 40000 cells/well in a complete medium. After 24 h the culture medium was replaced with 200 µL/well of coelenterazine in Tyrode's buffer (Standard Tyrode's buffer: in house solution, 130 mM NaCl, 5 mM KCl, 2 mM CaCl2, 5 mM NaHCO3, 1 mM MgCl2, 20 mM HEPES, pH 7.4). Coelenterazine was purchased from BIOSYNTH (cat. n° C-7001). 10 mM stock solution was prepared in DMSO and glutathione and stored at -20° C. The plates were incubated for 4 hours at 37°C, and injected with 10 µL/well of test compounds at 25X concentration in Tyrode's buffer. After 4 minutes a second injection of 50 µL/well of 5X α,β-Met-ATP in Tyrode's buffer (α,β-Met-ATP: from Tocris (cat. n° 3209), was dissolved at 100 mM in water and stored in aliquots at -20°C) was performed and the signal of the emitted luminescence was recorded by FLEXSTATION III (Molecular Devices). […]
# The inhibition curves of the tested compounds at cloned P2X3 receptor were determined by nonlinear regression analysis using software Prism 5.0 (Graphpad, San Diego, CA). The IC50 values and pseudo-Hill slope coefficients were estimated by the program.
# [2] = system: C57BL/6J mice; experiment: Scratching model: inhibition of ATP induced pruritus in mouse; type: in vivo; conditions: dose inhibiting the 35% of number of bouts, intraperitoneally 30 min before α,β-meATP 200 µg/50 µL intradermal, bouts counted for 30 minutes
# Procedure: C57BL/6J mice, Hartley Guinea pigs and Sprague-Dawley Rats from Charles River Italy were used in the experiments. Animals were housed with free access to food and water and maintained on a forced 12 hr light-dark cycle at 22-24°C for at least one week before the experiments were carried out. The animals were handled according to internationally accepted principles for care of laboratory animals (Directive 2010/63/EU of the European Parliament and of the Council of 22 September 2010).
# "Scratchng model" - Inhibition of ATP induced pruritus in mouse
# Mice were shaved at the rostral back the day before injection. The day of the experiment, an intradermal injection of the irritant agent α,β-meATP 200 µg/50 µL (Sigma, Italy) into the skin was performed. The hind limb scratching behavior directed toward the injection site, was recorded. One bout was defined as the lifting of the hindlimb toward the injection site and then placing the limb back on the floor. The number of bouts were counted for a period of 30 minutes. The Example 22 compound investigated was injected intraperitoneally 30 min before the administration of the irritant agent. (Fig. 2)
# In the scratching model the results are presented as mean ± SEM of the values. Statistical analysis was performed using one-way ANOVA and Dunnet's test for multiple comparisons. The ED35 of the tested compounds was determined by linear regression analysis of bouts (Graphpad v5).
# [3] = biological target: T2, human P2X2/3 receptor (Homo sapiens, UniProt P56373+Q9UBL9); experiment: Calcium fluorescence measurement: human P2X2/3 receptor activity inhibition (CHO-K1 cells, Fluo-8 NoWash, […]); type: cell-based; conditions: for IC50: CHO-K1 cells expressing human P2RX2/X3 channel, 10µM α,β-Met-ATP, read-out: h-P2X2/3 IC50; for Selectivity: ratio of IC50 of P2X2/3/ P2X3 receptors
# T2 construct: expressed in transfected cells; host or cells: CHO-K1
# T2 sequence (P56373 1-397): T1 sequence (P56373 1-397)
# T2 sequence (Q9UBL9 1-471): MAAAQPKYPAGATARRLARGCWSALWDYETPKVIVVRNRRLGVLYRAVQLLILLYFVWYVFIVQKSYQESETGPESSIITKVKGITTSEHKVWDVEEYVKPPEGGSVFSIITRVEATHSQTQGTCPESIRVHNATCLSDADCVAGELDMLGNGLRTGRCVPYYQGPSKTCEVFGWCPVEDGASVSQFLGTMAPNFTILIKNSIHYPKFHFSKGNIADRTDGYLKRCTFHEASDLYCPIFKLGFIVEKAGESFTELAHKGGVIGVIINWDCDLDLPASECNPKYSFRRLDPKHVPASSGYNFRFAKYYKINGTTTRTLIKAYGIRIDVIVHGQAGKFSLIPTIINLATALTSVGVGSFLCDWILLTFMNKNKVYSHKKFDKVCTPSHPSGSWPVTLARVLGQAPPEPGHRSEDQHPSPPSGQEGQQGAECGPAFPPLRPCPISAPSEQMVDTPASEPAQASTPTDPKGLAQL
# Procedure: Determination of human P2X2/3 receptor activity inhibition
# The assay for the human P2RX2/X3 has been evaluated by the screening instrumentation using the […] as reader and the FLUO8-NoWash dye as fluorescent readout for calcium detection.
# CHO-K1 cells recombinantly expressing the human P2RX2/X3 channel are maintained in DMEM F-12 (1:1) mixture (LONZA cat. n°: BE04-687F/U1) supplemented with 5 mL of 100 mM Sodium Pyruvate (LONZA cat. n° BE13-115E), 25 mL of 7.5% Sodium Bicarbonate (LONZA cat. n° BE17-613E), 6.5 mL of 1M Hepes (LONZA cat. n° BE17-737E), 5 mL of 100X Penicillin/Streptomycin mixture (LONZA cat. n° DE17-602E) and 50 mL of Fetal Bovine Serum (Sigma cat. n° F7524), 5 µg/mL Puromycin dihydrochloride (Sigma cat. n° P9620) and 1 mg/ml G418 disulfate salt (Sigma cat. n° G8168).
# Cells were seeded into black-walled clear bottom 384 Multiwell plates at a density of 10.000 cells/well in complete medium. After 24 h the culture medium was replaced with 20 µL/well of Fluo-8 NoWash calcium sensitive dye (AAT Bioquest cat. n° 36316) diluted in Tyrode's buffer (Standard Tyrode's buffer: in house solution, 130 mM NaCl, 5 mM KCl, 2 mM CaCl2, 5 mM NaHCO3, 1 mM MgCl2, 20 mM HEPES, pH 7.4).
# The plates were incubated for 1 hours at 37°C and injected with 10 µL/well of test compounds at 3X concentration in Tyrode's buffer with the […]. After 5 minutes a second injection of 15 µL/well of 10µM α,β-Met-ATP in Tyrode's buffer (α,β-Met-ATP: from Tocris cat. n° 3209) was performed and the signal of the emitted fluorescence was recorded by […] (Molecular Devices).
# The selectivity is expressed as the ratio of IC50 of P2X2/3/ P2X3 receptors. Table 8: Human P2X3 and h-P2X2/3 receptor antagonist activity for selected compounds of the invention.
IC50 [1],IC50 [3],Selectivity [3],Compound,ED35 [2]
16.6 nM,> 30000 nM,>1800,"CC(C)C1C(=O)N=C2c3nnc(N4CCOCC4)cc3N(Cc3ccc(Cl)cc3)C(=O)N21 (stereo not drawn) [Example 28, 5-[(4-Chlorophenyl)methyl]-3-(morpholin-4-yl)-8-(propan-2-yl)imidazo[1',2':1,6]pyrimido[5,4-c]pyridazine-6,9(5H,8H)-dione]",22.54 mg/kg
43 nM,> 30000 nM,>697,"CC(=O)N1CCN(c2cnc3c(c2)n(Cc2ccc(Cl)cc2)c(=O)n2c(C(C)(C)C)nnc32)CC1 [Example 34, 8-(4-Acetylpiperazin-1-yl)-3-tert-butyl-6-[(4-chlorophenyl)methyl]pyrido[2,3-e][1,2,4]triazolo[4,3-c]pyrimidin-5(6H)-one]",12.42 mg/kg
330 nM,> 30000 nM,>90,"COc1ccc(Cn2c(=O)n3c(C(C)(C)C)nnc3c3ncc(N4CCNCC4)cc32)cc1 [Example 35, 3-tert-Butyl-6-[(4-methoxyphenyl)methyl] -8-(piperazin-1-yl)pyrido[2,3-e][1,2,4]triazolo[4,3-c]pyrimidin-5(6H)-one]",–
136 nM,> 30000 nM,>119,"COc1ccc(Cn2c(=O)n3c(C(C)(C)C)nnc3c3ncc(N4CCN(C(C)=O)CC4)cc32)cc1 [Example 36, 8-(4-Acetylpiperazin-1-yl)-3-tert-butyl-6-[(4-methoxyphenyl)methyl]pyrido[2,3-e][1,2,4]triazolo[4,3-c]pyrimidin-5(6H)-one]",–
50.6 nM,19900 nM,>392,"COc1ccc(Cn2c(=O)n3c(C(C)(C)C)nnc3c3ncc(N4CCCCC4)cc32)cc1 [Example 38, 3-tert-Butyl-6-[(4-methoxyphenyl)methyl]-8-(piperidin-1-yl)pyrido[2,3-e][1,2,4]triazolo[4,3-c]pyrimidin-5(6H)-one]",–
67.6 nM,> 30000 nM,>444,"CC(C)(C)c1nnc2c3ncc(N4CC[C@@H](O)C4)cc3n(Cc3ccc(Cl)cc3)c(=O)n12 [Example 43, 3-tert-Butyl-6-[(4-chlorophenyl)methyl]-8-[(3R)-3-hydroxypyrrolidin-1-yl]pyrido[2,3-e][1,2,4]triazolo[4,3-c]pyrimidin-5(6H)-one]",–
6.73 nM,3900 nM,582,"CC(C)(C)c1nnc2c3nnc(N4CCOCC4)cc3n(Cc3ccc(Cl)cc3)c(=O)n12 [Example 44, 3-tert-Butyl-6-[(4-chlorophenyl)methyl]-8-(morpholin-4-yl)[1,2,4]triazolo[4',3': 1,6]pyrimido[5,4-c]pyridazin-5(6H)-one]",9.06 mg/kg
24.9 nM,> 30000 nM,>1000,"COC(C)(C)c1nnc2c3nnc(N4CCOCC4)cc3n(Cc3ccc(Cl)cc3)c(=O)n12 [Example 48, 6-[(4-Chlorophenyl)methyl]-3-(2-methoxypropan-2-yl)-8-(morpholin-4-yl)[1,2,4]triazolo[4',3': 1,6]pyrimido[5,4-c]pyridazin-5(6H)-one]",–
19.5 nM,> 30000 nM,>1500,"CC(C)(C)Cc1nnc2c3nnc(N4CCOCC4)cc3n(Cc3ccc(Cl)cc3)c(=O)n12 [Example 49, 6-[(4-Chlorophenyl)methyl]-3-(2,2-dimethylpropyl)-8-(morpholin-4-yl)[1,2,4]triazolo[4',3':1,6]pyrimido[5,4-c]pyridazin-5(6H)-one]",–
98.6 nM,> 30000 nM,>304,"CN(C)c1nnc2c3nnc(N4CCOCC4)cc3n(Cc3ccc(Cl)cc3)c(=O)n12 [Example 50, 6-[(4-Chlorophenyl)methyl] -3 - (dimethylamino)-8-(morpholin-4-yl)[1,2,4]triazolo[4',3': 1,6]pyrimido[5,4-c]pyridazin-5(6H)-one]",–
25 nM,> 30000 nM,>1200,"CC(C)(C)c1nnc2c3nnc(N4CCC(O)CC4)cc3n(Cc3ccc(Cl)cc3)c(=O)n12 [Example 55, 3-tert-Butyl-6-[(4-chlorophenyl)methyl]-8-(4-hydroxypiperidin-1-yl)[1,2,4]triazolo[4',3': 1,6]pyrimido[5,4-c]pyridazin-5(6H)-one]",–
